Measurements: patent publication US6737383B1, “Herbicidal oxadiazolidines” (priority 1999, dated 2004)

What was measured:
[1] = system: cocklebur; assay: Test B pre/postemergence cocklebur; format: in vivo, Xanthium strumarium
Summary of the method: (§1)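 Herbicidal effect was estimated by eye on a ten-point control scale after plants spent twelve to sixteen days in a greenhouse following soil or foliar treatment. Foliar sprays targeted plants at one to four leaves; all doses were formulated in a non-phytotoxic solvent with surfactant.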

[2] = system: pigweed; assay: Test B pre/postemergence pigweed; format: in vivo, Amaranthus retroflexus
Summary of the method: as §1

[3] = system: morningglory; assay: Test B pre/postemergence morningglory; format: in vivo, Ipomoea hederacea
Summary of the method: as §1

[4] = system: corn; assay: Test B pre/postemergence corn; format: in vivo, Zea mays
Summary of the method: as §1

[5] = system: crabgrass; assay: Test B pre/postemergence crabgrass; format: in vivo, Digitaria sanguinalis
Summary of the method: as §1

[6] = system: bedstraw; assay: Test B pre/postemergence bedstraw; format: in vivo, Galium aparine
Summary of the method: as §1

[7] = system: wild oat; assay: Test B pre/postemergence wild oat; format: in vivo, Avena fatua
Summary of the method: as §1

[8] = system: sugar beet; assay: Test B pre/postemergence sugar beet; format: in vivo, Beta vulgaris
Summary of the method: as §1

[9] = system: rape; assay: Test B pre/postemergence rape; format: in vivo, Brassica napus
Summary of the method: as §1

[10] = system: blackgrass; assay: Test B pre/postemergence blackgrass; format: in vivo, Alopecurus myosuroides
Summary of the method: as §1

[11] = system: wheat; assay: Test B pre/postemergence wheat; format: in vivo, Triticum aestivum
Summary of the method: as §1

[12] = system: velvetleaf; assay: Test B pre/postemergence velvetleaf; format: in vivo, Abutilon theophrasti
Summary of the method: as §1

[13] = system: purple nutsedge; assay: Test B pre/postemergence purple nutsedge; format: in vivo, Cyperus rotundus
Summary of the method: as §1

[14] = system: soybean; assay: Test B pre/postemergence soybean; format: in vivo, Glycine max
Summary of the method: as §1

[15] = system: giant foxtail; assay: Test B pre/postemergence giant foxtail; format: in vivo, Setaria faberii
Summary of the method: as §1

[16] = system: surinam grass; assay: Test B pre/postemergence surinam grass; format: in vivo, Brachiaria decumbens
Summary of the method: as §1

[17] = Postemergence, Rate 125 g/ha, scale of 0 to 10 where 0 is no effect and 10 is complete control
[18] = Preemergence, Rate 62 g/ha, scale of 0 to 10 where 0 is no effect and 10 is complete control
[19] = Preemergence, Rate 125 g/ha, 0 is no effect, 10 is complete control
[20] = Preemergence, Rate 250 g/ha, scale 0 to 10, 0 is no effect, 10 is complete control
[21] = Preemergence, Rate 500 g/ha, scale 0 to 10 (0 no effect, 10 complete control)
[22] = Rate 62 g/ha, Postemergence, scale of 0 to 10 where 0 is no effect and 10 is complete control
[23] = Rate 250 g/ha, Postemergence, scale 0 to 10, 0 is no effect, 10 is complete control
[24] = Rate 500 g/ha, Postemergence, scale 0 to 10
[25] = Preemergence, Rate 125 g/ha, scale of 0 to 10 where 0 is no effect and 10 is complete control
[26] = Preemergence, Rate 250 g/ha, scale 0 to 10 (0 no effect, 10 complete control)
[27] = Preemergence, Rate 500 g/ha, scale of 0 to 10 where 0 is no effect and 10 is complete control

CC(C)N(C(=O)n1oc(=O)n([C@@H](C)c2ccccc2)c1=O)c1ccccc1 [Compound 168]
2: Plant response rating, Cocklebur [1, 23] | Cocklebur plant response rating [1, 24] | Plant response rating, Crabgrass [5, 23] | Blackgrass plant response rating [10, 20] | Blackgrass plant response rating [10, 21] | Plant response rating, Blackgrass [10, 23] | Plant response rating, Soybean [14, 23] | Soybean plant response rating [14, 24] | B. signalgrass plant response rating (0 to 10 scale) [16, 19] | B. signalgrass plant response rating [16, 20]
4: Sugarbeets plant response rating [8, 20]
6: Velvetleaf plant response rating [12, 21] | Giant foxtail plant response rating [15, 18]
8: Morningglory plant response rating [3, 17] | Plant response rating, Bedstraw [6, 23] | Giant foxtail plant response rating (0 to 10 scale) [15, 19]
5: B. signalgrass plant response rating [16, 21]
1: Crabgrass plant response rating [5, 17] | Wild oats plant response rating [7, 20] | Blackgrass plant response rating (0 to 10 scale) [10, 19] | Plant response rating, Velvetleaf [12, 23] | Velvetleaf plant response rating [12, 24] | Soybean plant response rating [14, 17] | Soybean plant response rating [14, 22] | Plant response rating, Giant foxtail [15, 23]
7: Morningglory plant response rating [3, 22] | Crabgrass plant response rating [5, 20] | Crabgrass plant response rating [5, 21] | Sugarbeets plant response rating [8, 21] | Blackgrass plant response rating [10, 24]
10: Plant response rating, Morningglory [3, 23] | Morningglory plant response rating [3, 24] | Giant foxtail plant response rating [15, 20] | Giant foxtail plant response rating [15, 21]
0: Cocklebur plant response rating [1, 17] | Cocklebur plant response rating [1, 18] | Cocklebur plant response rating (0 to 10 scale) [1, 19] | Cocklebur plant response rating [1, 20] | Cocklebur plant response rating [1, 21] | Cocklebur plant response rating [1, 22] | Redroot pigweed plant response rating [2, 17] | Redroot pigweed plant response rating [2, 18] | Redroot pigweed plant response rating (0 to 10 scale) [2, 19] | Redroot pigweed plant response rating [2, 20] | Redroot pigweed plant response rating [2, 21] | Redroot pigweed plant response rating [2, 22] | Plant response rating, Redroot pigweed [2, 23] | Redroot pigweed plant response rating [2, 24] | Morningglory plant response rating [3, 18] | Morningglory plant response rating (0 to 10 scale) [3, 19] | Morningglory plant response rating [3, 20] | Morningglory plant response rating [3, 21] | Corn plant response rating [4, 17] | Corn plant response rating [4, 18] | Corn plant response rating (0 to 10 scale) [4, 19] | Corn plant response rating [4, 20] | Corn plant response rating [4, 21] | Corn plant response rating [4, 22] | Plant response rating, Corn [4, 23] | Corn plant response rating [4, 24] | Crabgrass plant response rating [5, 18] | Crabgrass plant response rating [5, 22] | Bedstraw plant response rating [6, 18] | Bedstraw plant response rating (0 to 10 scale) [6, 19] | Bedstraw plant response rating [6, 20] | Bedstraw plant response rating [6, 21] | Wild oats plant response rating [7, 18] | Wild oats plant response rating (0 to 10 scale) [7, 19] | Plant response rating, Wild oats [7, 23] | Wild oats plant response rating [7, 24] | Sugarbeets plant response rating [8, 17] | Sugarbeets plant response rating [8, 18] | Sugarbeets plant response rating (0 to 10 scale) [8, 19] | Sugarbeets plant response rating [8, 22] | Plant response rating, Sugarbeets [8, 23] | Sugarbeets plant response rating [8, 24] | Rape plant response rating [9, 17] | Rape plant response rating [9, 18] | Rape plant response rating (0 to 10 scale) [9, 19] | Rape plant response rating [9, 20] | Rape plant response rating [9, 21] | Rape plant response rating [9, 22] | Plant response rating, Rape [9, 23] | Rape plant response rating [9, 24] | Blackgrass plant response rating [10, 17] | Blackgrass plant response rating [10, 18] | Blackgrass plant response rating [10, 22] | Wheat plant response rating [11, 18] | Wheat plant response rating (0 to 10 scale) [11, 19] | Wheat plant response rating [11, 20] | Wheat plant response rating [11, 21] | Plant response rating, Wheat [11, 23] | Wheat plant response rating [11, 24] | Velvetleaf plant response rating [12, 18] | Velvetleaf plant response rating (0 to 10 scale) [12, 19] | Velvetleaf plant response rating [12, 20] | Nutsedge plant response rating [13, 17] | Nutsedge plant response rating [13, 18] | Nutsedge plant response rating (0 to 10 scale) [13, 19] | Nutsedge plant response rating [13, 20] | Nutsedge plant response rating [13, 21] | Nutsedge plant response rating [13, 22] | Plant response rating, Nutsedge [13, 23] | Nutsedge plant response rating [13, 24] | Soybean plant response rating [14, 18] | Soybean plant response rating (0 to 10 scale) [14, 19] | Soybean plant response rating [14, 20] | Soybean plant response rating [14, 21] | Giant foxtail plant response rating [15, 17] | Giant foxtail plant response rating [15, 22] | B. signalgrass plant response rating [16, 17] | B. signalgrass plant response rating [16, 18] | B. signalgrass plant response rating [16, 22] | Plant response rating, B. signalgrass [16, 23] | B. signalgrass plant response rating ([16]; Rate 500 g/ha, Postemergence, scale 0 to 10, 0 no effect, 10 complete control)
3: Crabgrass plant response rating (0 to 10 scale) [5, 19] | Bedstraw plant response rating [6, 17] | Bedstraw plant response rating [6, 22] | Wild oats plant response rating [7, 21] | Giant foxtail plant response rating [15, 24]
9: Crabgrass plant response rating [5, 24]

CC(C)N(C(=O)n1oc(=O)n(CC(Cl)Cl)c1=O)c1ccc(F)cc1F [Compound 673]
4: Plant response rating, Corn [4, 26] | Crabgrass plant response rating [5, 18] | Plant response rating, Bedstraw [6, 26] | B. signalgrass plant response rating [16, 18]
1: Rape plant response rating [9, 18]
9: Plant response rating, Wild oats [7, 26] | Plant response rating, Blackgrass [10, 26] | Plant response rating, Blackgrass [10, 27] | Giant foxtail plant response rating [15, 18]
7: Plant response rating, Redroot pigweed [2, 25] | Plant response rating, B. signalgrass [16, 26]
0: Cocklebur plant response rating [1, 18] | Plant response rating, Cocklebur [1, 25] | Plant response rating, Cocklebur [1, 26] | Morningglory plant response rating [3, 18] | Plant response rating, Morningglory [3, 25] | Plant response rating, Morningglory [3, 26] | Corn plant response rating [4, 18] | Sugarbeets plant response rating [8, 18] | Plant response rating, Sugarbeets [8, 25] | Wheat plant response rating [11, 18] | Plant response rating, Wheat [11, 25] | Plant response rating, Wheat [11, 26] | Velvetleaf plant response rating [12, 18] | Nutsedge plant response rating [13, 18] | Plant response rating, Nutsedge [13, 25] | Soybean plant response rating [14, 18] | Plant response rating, Soybean [14, 25] | Plant response rating, Soybean [14, 26] | Plant response rating, Soybean [14, 27]
3: Bedstraw plant response rating [6, 18] | Plant response rating, Sugarbeets [8, 26] | Plant response rating, Sugarbeets [8, 27] | Blackgrass plant response rating [10, 18] | Plant response rating, Velvetleaf [12, 25] | Plant response rating, Velvetleaf [12, 26]
2: Plant response rating, Cocklebur [1, 27] | Plant response rating, Morningglory [3, 27] | Plant response rating, Corn [4, 25] | Plant response rating, Rape [9, 25] | Plant response rating, Rape [9, 26] | Plant response rating, Rape [9, 27] | Plant response rating, Nutsedge [13, 26]
8: Plant response rating, Crabgrass [5, 25] | Plant response rating, Wild oats [7, 27] | Plant response rating, Blackgrass [10, 25] | Plant response rating, Velvetleaf [12, 27] | Plant response rating, B. signalgrass [16, 27]
6: Redroot pigweed plant response rating [2, 18] | Plant response rating, Corn [4, 27] | Plant response rating, Bedstraw [6, 27] | Plant response rating, Nutsedge [13, 27] | Plant response rating, B. signalgrass [16, 25]
5: Wild oats plant response rating [7, 18]
10: Plant response rating, Redroot pigweed [2, 26] | Plant response rating, Redroot pigweed [2, 27] | Plant response rating, Crabgrass [5, 26] | Plant response rating, Crabgrass [5, 27] | Plant response rating, Giant foxtail [15, 25] | Plant response rating, Giant foxtail [15, 26] | Plant response rating, Giant foxtail [15, 27]
